Reference: US20050107430A1, “Antimicrobial and antiviral compounds” (priority 2003, published 2005)
In brackets after ≈: the same amount, converted by molar mass.

Key:
[1] = test system: MRSA (oxacillin/methicillin resistant S. aureus); assay: NCCLS MIC/MBC microdilution, MRSA; conditions: for MBC: read at 48 hr, 10^−3 kill
Experimental: (§2) Standard NCCLS (e.g., National Committee for Clinical Laboratory Standards) methods for determining MIC (e.g., minimum inhibitory concentration) and MBC (e.g., minimum bactericidal concentration) were used. 96 well micro-well plates were placed in a humid chamber and frozen at −70° C. [BBL Mueller Hinton Broth]. Drugs (e.g., antimicrobial compounds of the present invention) were added to a series of wells through 2 fold serial dilutions. 100 μl of a 2×10^−3 M solution of the respective Tx compounds was added to the first well in a series. 100 μl of the inoculum (e.g., microorganism) was added to the well. […] For example, the concentration in well 8 would be less than the concentration of the same drug in well 7. Inoculum (e.g., microorganism) that was added to the wells was prepared from 24 hour growth of an isolate on 5% sheep blood/Columbia agar plates. 5 to 10 representative colonies were then picked from the plates and added to saline and adjusted to 0.5 McFarland turbidity. Next the sample was diluted 1:100 in saline, such that 100 μl of the diluted sample contained approximately 1×10^5 microbes. 100 μl of the diluted sample was added to each well in a series of drug concentrations. Once the cells were added to the wells, the well plates were incubated at 35° C. without CO2 for 48 hrs and at this time the minimum bactericidal concentration was determined.
(§3) The MIC of Tx-118, Tx-147, and Tx-197 for certain Staphylococcus aureus (MRSA), Pseudomonas aeruginosa, Stenotrophomonas maltophilia, and VRE Enterococcus faecalis was determined using standard NCCLS methods. The first well in each series of decreasing drug concentrations contained 1×10^−4 M of a drug. The drug was diluted by serial two fold dilutions through all 12 wells in a series. There was a final DMSO concentration of 2% in the first well and 1% in the second well, etc. Tests with Tx-118 and Tx-197 were performed in triplicate, and tests with Tx-147 were performed in duplicate.

[2] = test system: Stenotrophomonas maltophilia; assay: NCCLS MIC/MBC microdilution, S. maltophilia; conditions: for MBC: read at 48 hr, 10^−3 kill
Experimental: as §2, §3

human fibroblasts = assay: Toxicity study with human fibroblasts; assay type: cell-based
[3] = test system: VRE (Vancomycin resistant Enterococci); assay: NCCLS MIC/MBC microdilution, VRE; conditions: for MIC, VRE enterococcus (E. faecalis): Table 3, 24 h and 48 h same results
Experimental: as §2, §3

BDF1′ mice = conditions: 35 mg/kg ip
Mycobacterium chelonae = assay: MIC, Mycobacterium chelonae; assay type: cell-based; conditions: Table 3
Candida albicans = assay: MIC, Candida albicans; assay type: cell-based
[4] = test system: chloroquin (CQ) resistant strain of Plasmodium falciparum (Pf); assay: In vitro efficacy against chloroquin resistant Plasmodium falciparum; assay type: cell-based
Experimental: Tx-5 and Tx-84 were tested for in vitro efficacy against a chloroquin (CQ) resistant strain of Plasmodium falciparum (Pf). The tests were performed in triplicate at a wide variety of concentrations and evaluated for effect compared with CQ.

E. coli ATCC 25922 = assay: NCCLS MIC/MBC microdilution, E. coli; assay type: cell-based; conditions: plate EC
Text: (§1) [BBL Mueller Hinton Broth].

[5] = test system: Mycobacterium tuberculosis; conditions: Table 3
[6] = test system: Vancomycin resistant S. aureus ATCC700699 and 700788 (VRSA); assay: NCCLS MIC/MBC microdilution, vancomycin resistant S. aureus; assay type: cell-based, Staphylococcus aureus; conditions: for MIC, VRSA (ATCC 700699) / MIC, VRSA (ATCC 700788): Table 3, 24 h and 48 h same results; for MBC: read at 48 hr
Text: as §1

P. aeruginosa = assay: NCCLS MIC/MBC microdilution, P. aeruginosa; set-up: MIC: key to the marks not given beside the values; conditions: for MIC, P. aeruginosa: Table 3, P. aeroginosa is L13 from Table 2
Enterococcus faecium = assay: NCCLS MIC/MBC microdilution, Enterococcus (vancomycin sensitive); assay type: cell-based; conditions: for MBC: read at 48 hr
Text: as §1

S. aureus = assay: NCCLS MIC/MBC microdilution, S. aureus patient isolates; assay type: cell-based, Staphylococcus aureus; conditions: for MBC: read at 48 hr
Text: as §1

Aspergillus fumigatus = assay: MIC, Aspergillus fumigatus; assay type: cell-based; conditions: Table 3
Fusarium = assay: MIC, Fusarium; assay type: cell-based; conditions: Table 3
[7] = Table 3, 24 h and 48 h same results
[8] = plate 699, VancoR S. aureus ATCC700699
[9] = plate 788, VancoR S. aureus ATCC 700788
[10] = plate E348, Enterococcus faecium patient isolate
[11] = plate E502, Enterococcus faecium ATCC 502806
[12] = plate E523, Enterococcus facium patient isolate
[13] = plate S332, S aureus patient isolate

With `c1ccc2c(c1)ccc1c3ccc(NCCCCN4CCCCC4)cc3ccc21` [Tx-5, N-(2′-chrysenyl)-4-(1′-piperidinyl)-butane-1,4-diamine] the “MIC, MRSA (methicillin resistant)” value [1, 7] was 1.5 to 3 µg/mL, the “bactericidal activity against Staphylococcus aureus (MRSA)” value ([1]; in words, Example 1) was “bactericidal activity” and the MIC ([1]; plate A1, MRSA patient isolate) was 3/3 ug/ml. The MBC ([1]; plate A1, MRSA) was 3/3 ug/ml, the MIC ([1]; plate B2, MRSA patient isolate) was 1.5 µg/mL (≈ 3.92 µM) and the MIC ([1]; plate E5, MRSA patient isolate) was 1.5 µg/mL (≈ 3.92 µM). For the same compound, the MIC ([1]; plate F6, MRSA patient isolate) was 1.5/1.5 ug/ml, the MBC ([1]; plate F6, MRSA) was 1.5/1.5 ug/ml and the MIC ([1]; plate G7, MRSA patient isolate) was 1.5 µg/mL (≈ 3.92 µM). The MIC ([1]; plate H9, MRSA patient isolate) was 3/3 ug/ml, the MBC ([1]; plate H9, MRSA) was 3/3 ug/ml and the MIC ([1]; plate K12, MRSA patient isolate) was 3 µg/mL (≈ 7.84 µM). The “MIC, Stenotrophomonas maltophilia” value [2, 7] was 24 to 48 µg/mL, the “bactericidal activity against Stenotrophomonas maltophilia” value ([2]; in words, Example 1) was “some bactericidal activity” and the MIC ([2]; plate C3, S. maltophilia patient isolate) was 48/48 ug/ml. The MBC ([2]; plate C3, S. maltophilia) was 48/48 ug/ml, the MIC ([2]; plate I10, S. maltophilia patient isolate) was 24/24 ug/ml and the MBC ([2]; plate I10, S. maltophilia) was 24/24 ug/ml. For the same compound, the MIC ([2]; plate J11, S. maltophilia patient isolate) was 48/48 ug/ml, the MBC ([2]; plate J11, S. maltophilia) was 48/48 ug/ml and the “Toxicity/human fibroblasts (IC50)” value (human fibroblasts) was 6 µg/mL. The “MIC, VRE enterococcus (E. faecalis)” value [3] was 3 µg/mL (≈ 7.84 µM), the MIC ([3]; plate D4, VRE patient isolate) was 3 µg/mL (≈ 7.84 µM) and the “animal studies (ip), mortality” value (BDF1′ mice) was “mg/kg (<10% mort)”. For the same compound, the “MIC, Mycobacterium chelonae” value (Mycobacterium chelonae) was 5 to 24 µg/mL, the “inhib. of Candida albicans” value (Candida albicans; @ 15 ug/ml) was “(90% inhib. @ 15 ug/ml)” and the “MIC, Candida albicans” value (Candida albicans; Table 3) was 30 µg/mL (≈ 78.4 µM). The IC50 ([4]; CQ resistant P. falciparum, in vitro, triplicate) was 154 µM, the “inhibitory effect against Pf” value ([4]; in words) was “weak effect” and the MIC (E. coli ATCC 25922) was 48/48 ug/ml. For the same compound, the MBC (E. coli ATCC 25922; read at 48 hr, 10^−3 kill) was 48/48 ug/ml, the “MIC, Mycobacterium tuberculosis” value [5] was 7 µg/mL (≈ 18.3 µM) and the “MIC, VRSA (ATCC 700699)” value [6] was 1.5 µg/mL (≈ 3.92 µM). For the same compound, the “MIC, VRSA (ATCC 700788)” value [6] was 3.0 µg/mL (≈ 7.84 µM), the MIC [6, 8] was 1.5 µg/mL (≈ 3.92 µM) and the MBC [6, 8] was 12 µg/mL (≈ 31.4 µM). The MIC [6, 9] was 3 µg/mL (≈ 7.84 µM), the MBC [6, 9] was 12 µg/mL (≈ 31.4 µM) and the “MIC, P. aeruginosa” value (P. aeruginosa) was “No activity”. For the same compound, the MIC (P. aeruginosa; plate 37, P. aeruginosa sensitive isolate) was “+++”, the MIC (P. aeruginosa; plate ATCC, P. aeruginosa ATCC 27853) was “+++” and the MIC (P. aeruginosa; plate L13, P. aeruginosaR (multi-resistant)) was “+++”. It also gave an MIC (Enterococcus faecium; [10]) of 1.5 µg/mL (≈ 3.92 µM), an MBC (Enterococcus faecium; [10]) of 3 µg/mL (≈ 7.84 µM) and an MIC (Enterococcus faecium; [11]) of 1.5 µg/mL (≈ 3.92 µM). The MBC (Enterococcus faecium; [11]) was 6 µg/mL (≈ 15.7 µM), the MIC (Enterococcus faecium; [12]) was 1.5/1.5 ug/ml and the MBC (Enterococcus faecium; [12]) was 1.5/1.5 ug/ml. For the same compound, the MIC (S. aureus; [13]) was 0.4 µg/mL (≈ 1.05 µM), the MBC (S. aureus; [13]) was 0.7 µg/mL (≈ 1.83 µM) and the MIC (S. aureus; plate S520, S aureus patient isolate penicillin resistant) was 1.5/1.5 ug/ml. For the same compound, the MBC (S. aureus; plate S520, S aureus patient isolate) was 1.5/1.5 ug/ml.

For `c1ccc2c3c(ccc2c1)-c1c(cc(NCCCCN2CCCCC2)c2ccccc12)C3` [Tx-112], the “MIC, Aspergillus fumigatus” value (Aspergillus fumigatus) was 6.5 µg/mL (≈ 15.5 µM), the “MIC, VRE enterococcus (E. faecalis)” value [3] was 210 µg/mL (≈ 499 µM) and the “MIC, Fusarium” value (Fusarium) was 3.3 µg/mL (≈ 7.85 µM). The “MIC, VRSA (ATCC 700699)” value [6] was 8 µg/mL (≈ 19 µM), the “MIC, VRSA (ATCC 700788)” value [6] was 8 µg/mL (≈ 19 µM) and the “MIC, P. aeruginosa” value (P. aeruginosa) was “No activity”.
